{
  "source": "patent US20060216699A1",
  "about": "“Peptides for the detection of HIV-1 group O” (priority 1998, published 2006)",
  "molecules": {"B1": {"name": "DHFR-hES-MH: truncated dihydrofolate reductase fusion, mosaic group M/group O gp41 recombinant antigen with myc sequence and his6 tail (protein)", "chain": "MRGSGIMVRPLNSIVAVSQNMGIGKNGDLPWPPLRNEFKYFQRMTTTSSVEGKQNLVIMGRKTWFSIPEKNRPLKDRINIVLSRELKEPPRGAHFLAKSLDDALRLIEQPELASKVDMVWIVGGSSVYQEAMNQPGHLRLFVTRIMQEFESDTFFPEIDLGKYKLLPEYPGVLSEVQEEKGIKYKFEVYEKKGSRSARLLLSGIVQQQNNLLRAIEAQQHMLQLTAWGIKQLRARLQALETLMQNQQRLNSWGCKGRIICYTSARWHASWSNKSLEDIWDNMTWMQWDQQVNNVSSIIYDKILEAQDQQEENVRELLELDKWASLWNWFDITNWLWYIKIFIMIVGPEQKLISEEDLNSAVDHHHHHH", "modifications": "HIV Consensus"}},
  "key": {"[1]": {"tested_on": "anti-HIV-1 group O antibodies present in human serum", "test": "Antibody capture format: peptide on solid phase, bound antibody detected with peptide-HRP conjugate", "format": "binding", "settings": "same peptide as Ag and as HRP conjugate (1:100)", "procedure": "In peptide 147-5, the N-terminal glycine was added to function as a spacer group, while the arginine in position 2 was added to enhance the solubility of the peptide in aqueous buffers. Both of these peptides were evaluated for their ability to be recognized by HIV-1 group O serum samples in an antibody capture format. In general, in such an assay, a peptide is bound to a solid phase and bivalent antibody presents in a sample binds to the peptide linked thereto. Bound antibody is subsequently detected using a conjugate made of the peptide in question coupled to horseradish peroxidase. The peptide-HRP conjugate binds to antibody which in turn is bound to the solid phase linked peptide. Methods suitable for preparing such conjugates may be found readily in the scientific literature and are well known to those versed in the art.\nMicrowell plates were pre-coated with either peptide 147-4 or 147-5. A dilution of a serum sample was then incubated for 1 hour at 37° C., after which the plate was washed extensively. A 1:100 dilution of either peptide 147-4 or 147-5 conjugated to HRP was then added and allowed to incubate for an additional hour at 37° C. Following this incubation, the plates were again thoroughly washed. The presence of bound conjugate was detected by addition of substrate for HRP (O-phenylenediamine) and H2O2.\nThe peptides were evaluated for their ability to be recognized by anti-HIV-1 group O antibodies present in human serum from infected individuals. All group O samples were confirmed to be positive for HIV-1 group O by reverse transcriptase-polymerase chain reaction (RT-PCR) amplification of viral gp41 sequences using O-specific primers. The identity of the PCR product was further confirmed by DNA sequencing."}, "[2]": {"tested_on": "antibodies to HIV-1 group O", "test": "Chemiluminescent ELISA: serially diluted peptide on streptavidin-coated wells, serum ODS007b 1:60, anti-human IgG:HRP, luminol", "format": "binding", "settings": "serum ODS007b 1:60", "procedure": "To compare the performance of peptide 147 to another genuine group O sequence, the peptide corresponding to the ANT70 sequence was synthesized (peptide 80). Peptides 147 and 80 were dissolved at the same concentration, serially diluted, and bound to streptavidin-coated wells. A 1:60 dilution of serum sample ODS007b (see Table 3) was added to all wells and incubated. After washing, an anti-human IgG:HRP conjugate was added, incubated, and the wells again thoroughly washed. In this case, a chemiluminescent substrate was used, consisting of luminol and a peracid salt. The emitted light was quantified using a luminometer. The results are tabulated in Table 4 and shown graphically in FIG. 2."}, "group O antibody": {"tested_on": "group O antibody", "test": "ELISA with recombinant antigen coated at 0.5 μg/ml, group O sera, HRP-labeled mouse anti-human IgG", "format": "binding", "procedure": "Performance of group M/group O “mosaic” constructs for group O antibody detection. The protein expressed as described was coated at a concentration of 0.5 μg/ml into the wells of microtiter plates for evaluation. Following coating of the protein, any remaining binding sites on the plastic were block with bovine serum albumin. Dilutions of group O sera were then tested for their ability to recognize the recombinant antigen. Bound antibodies were detected by incubation with HRP-labeled mouse anti-human IgG conjugate, and the bound conjugate was subsequently detected by addition of OPD and H2O2."}, "type B sample": {"tested_on": "type B sample", "test": "ELISA with recombinant antigen coated at 0.5 μg/ml, type B sample", "format": "binding, human"}},
  "data": [
    {"molecule": "EQQRLNSWGCKGRIICYTSARWH (HIV Consensus) [peptide 147-4, variant of peptide 147]", "values": [
      {"measurement": "Optical Density (OD)492", "setting": "[1]; negative control", "value": 0.010, "unit": "OD"},
      {"measurement": "Optical Density (OD)492", "setting": "[1]; sample ODS001 (1:200)", "value": ">2.500", "unit": "OD"},
      {"measurement": "Optical Density (OD)492", "setting": "[1]; sample ODS002 (1:175)", "value": 0.785, "unit": "OD"},
      {"measurement": "Optical Density (OD)492", "setting": "[1]; sample ODS006 (1:100)", "value": 0.133, "unit": "OD"},
      {"measurement": "Optical Density (OD)492", "setting": "[1]; sample ODS007 (1:1,500)", "value": 0.241, "unit": "OD"}
    ]},
    {"molecule": "GRETLMQDQQRLNSWGCKGRIICYTSARWH (HIV Consensus) [peptide 147-5, longer variant of peptide 147 with N-terminal glycine spacer and arginine to enhance solubility]", "values": [
      {"measurement": "Optical Density (OD)492", "setting": "[1]; negative control", "value": 0.022, "unit": "OD"},
      {"measurement": "Optical Density (OD)492", "setting": "[1]; sample ODS001 (1:200)", "value": ">2.500", "unit": "OD"},
      {"measurement": "Optical Density (OD)492", "setting": "[1]; sample ODS002 (1:175)", "value": 1.343, "unit": "OD"},
      {"measurement": "Optical Density (OD)492", "setting": "[1]; sample ODS006 (1:100)", "value": 0.266, "unit": "OD"},
      {"measurement": "Optical Density (OD)492", "setting": "[1]; sample ODS007 (1:1,500)", "value": 0.316, "unit": "OD"}
    ]},
    {"molecule": "NQQLLSLWGCKGKLVCYTSVKWN (Human immunodeficiency virus type 1) [peptide 80, reference compound]", "values": [
      {"measurement": "luminescent units", "setting": "[2]; peptide 0.020 ug/ml", "value": 0.387, "unit": "luminescent units"},
      {"measurement": "luminescent units", "setting": "[2]; peptide 0.039 ug/ml", "value": 0.376, "unit": "luminescent units"},
      {"measurement": "luminescent units", "setting": "[2]; peptide 0.078 ug/ml", "value": 0.621, "unit": "luminescent units"},
      {"measurement": "luminescent units", "setting": "[2]; peptide 0.156 ug/ml", "value": 1.288, "unit": "luminescent units"},
      {"measurement": "luminescent units", "setting": "[2]; peptide 0.313 ug/ml", "value": 2.294, "unit": "luminescent units"},
      {"measurement": "luminescent units", "setting": "[2]; peptide 0.625 ug/ml", "value": 2.854, "unit": "luminescent units"},
      {"measurement": "luminescent units", "setting": "[2]; peptide 1.250 ug/ml", "value": 2.908, "unit": "luminescent units"},
      {"measurement": "luminescent units", "setting": "[2]; peptide 2.500 ug/ml", "value": 1.821, "unit": "luminescent units"}
    ]},
    {"molecule": "B1", "values": [
      {"measurement": "OD492", "setting": "group O antibody; sample ODS001 (dilution)", "value": 1.179, "unit": "OD"},
      {"measurement": "OD492", "setting": "group O antibody; sample ODS002 (dilution)", "value": 1.323, "unit": "OD"},
      {"measurement": "OD492", "setting": "group O antibody; sample neg. control 1", "value": "−0.061", "unit": "OD"},
      {"measurement": "OD492", "setting": "type B sample", "value": 0.685, "unit": "OD"}
    ]}
  ]
}
